We go through 15 compounds from patent US11925637B2, “Phenylpiperazine proprotein convertase subtilisin/kexin type 9 (PCSK9) modulators and their use” (SRX Cardio, LLC, priority 2015, dated 2024).

Test [1] concerns the target T1, recombinant PCSK9 (Homo sapiens, UniProt Q8NBP7). Description: DiI-LDL Uptake Assay (% inhibition of recombinant PCSK9). The test is classed as cell-based. The conditions noted are these: 2.5 ug/mL recombinant PCSK9, HepG2 cells (FIG. 1), read-out: Uptake Assay: % Inhibition of 2.5 ug/mL recombinant PCSK9 @ X compound dose; for inhibition at 10 µM: compound dose 10 uM; for inhibition at 20 µM: compound dose 20 uM; for inhibition at 5 µM: compound dose 5 uM; for inhibition at 1.25 µM: compound dose 1.25 uM; for inhibition at 2.5 µM: compound dose 2.5 uM. The procedure:
The cells were incubated in a 96-well plate for a total of 16 h in the absence or presence of recombinant PCSK9 (final concentration 2.5 ug/ml) protein alone or recombinant PCSK9 protein pre-mixed with indicated concentration of experimental compounds (Cmpd #). After 16 h, DiI-LDL (final concentration 5 ug/ml) was added to the incubation mixtures. After 4 h, cells are stained with Hoechst 33342 for 30 minutes, then rinsed with phosphate buffered saline, and then a final volume of 100 ul phosphate buffered saline was added to each well. The fluorescence was measured (DiI: excitation at 550 nm and emission at 590 nm; Hoechst: excitation at 355 nm, emission at 460 nm). The percent recombinant PCSK9 inhibition was calculated as [‘Compound Dose DiI Fluorescence’−‘2.5 ug/ml PCSK9-treated DiI Fluorescence’]/[‘No PCSK9 DiI Fluorescence’−‘2.5 ug/ml PCSK9-treated DiI Fluorescence’]×100%.
Cellular DiI-LDL uptake can be measured using protocols adapted from Benjannet et al., “Effects of the prosegment and pH on the activity of PCSK9: evidence for additional processing events” J Biol Chem. 285(52): 40965-40978 (2010) and “Composition and Methods of Use of Small Molecules as Binding Ligands for the Modulation of Proprotein Convertase Subtilisin/Kexin Type 9 (PCSK9) Protein Activity” (WO2016029037), which are incorporated by reference in their entirety.
Cells, such as HepG2, HuH7, FL83B, or a cell line transfected with a short-hairpin PCSK9 knockdown sequence such as HepG2/shPCSK9, HuH7/shPCSK9, or FL83B/shPCSK9 are plated and cultured at 37° C. for 12-24 h. Culture media is removed and replaced with fresh lipoprotein-depleted culture media supplemented with 5 ug/mL of DiI-LDL (Kalen Biomedical) or lipoprotein-depleted culture media supplemented with 5 ug/mL of DiI-LDL plus a predetermined concentration of recombinant PCSK9, for example a 10 nM final concentration of PCSK9. Lipoprotein-depleted culture media can be composed of DMEM (Invitrogen) with 10% lipoprotein-depleted fetal bovine serum (Kalen Biomedical) and supplemented with penicillin-streptomycin (Life Technologies). Cells are dosed with small molecule test compounds at doses ranging from 0 nM to 100 uM.
Following an incubation period of specified length, such as 6 hours, Hoechst 33342 (AnaSpec) stain is added to the cell media per manufacturer's instructions and incubated for a specified length (e.g., 30 minutes). The lipoprotein-depleted media is removed and cells rinsed three times with phosphate buffered saline. A final volume of phosphate buffered saline is added back to the wells. The DiI fluorescence is measured with a plate reader using an exciting wavelength of 550 nm and the resulting emission at 590 nm is measured. The Hoechst stain fluorescence is measured with a plate reader using an exciting wavelength of 355 nm and the resulting emission at 460 nm is measured.
Cells are analyzed by for both Hoechst stain (DNA content) and DiI-LDL fluorescence. Cells incubated with small molecule compounds that are inhibitors of PCSK9 will be expected to show increased amounts of DiI-LDL fluorescence, relative to control (no compound) specimens, and cells incubated with small molecule compounds that are activators of PCSK9 will be expected to show decreased amounts of DiI-LDL fluorescence relative to control (no compound) specimens.

Test [2] concerns the target T1, recombinant PCSK9. Description: LDLR Flow (FACS) Assay (% inhibition of recombinant PCSK9). Format: cell-based. Particulars: 5.0 ug/mL recombinant PCSK9, HuH7 cells (FIG. 2), read-out: LDLR Flow Assay: % Inhibition of 5.0 ug/mL recombinant PCSK9 @ X compound dose; for inhibition at 1.25 µM: Huh-7, compound dose 1.25 uM; for inhibition at 10 µM: Huh-7, compound dose 10 uM; for inhibition at 0.313 µM: Huh-7, compound dose 0.313 uM; for inhibition at 20 µM: Huh-7, compound dose 20 uM. Here is the method: The cells were incubated in 24-well plates for a total of 6 h in the absence or presence of recombinant PCSK9 protein (final concentration of 5.0 ug/ml), or in the presence of PCSK9 protein mixed with indicated concentration of experimental compound (Cmpd #). After 6 hours, the cells were released from the plate, stained with anti-LDLR antibody, then rinsed, counterstained with DAPI, and then measured by fluorescence activated cell sorting (FACS). The percent recombinant PCSK9 inhibition was calculated as [‘Compound Dose LDLR Fluorescence’−‘5.0 ug/ml PCSK9-treated LDLR Fluorescence’]/[‘No PCSK9 Basal LDLR Fluorescence’−‘5.0 ug/ml PCSK9-treated LDLR Fluorescence’]×100%.
LDLR levels can be measured using flow cytometry or fluorescence activated cell sorting (FACS) using protocols adapted from Benjannet et al., “Effects of the prosegment and pH on the activity of PCSK9: evidence for additional processing events” J Biol Chem. 285(52): 40965-40978 (2010) and “Composition and Methods of Use of Small Molecules as Binding Ligands for the Modulation of Proprotein Convertase Subtilisin/Kexin Type 9 (PCSK9) Protein Activity” (WO2016029037), which are incorporated by reference in their entirety.
Cells, such as HepG2, HuH7, FL83B, or a cell line transfected with a short-hairpin PCSK9 knockdown sequence such as HepG2/shPCSK9, HuH7/shPCSK9, or FL83B/shPCSK9 are plated and cultured at 37° C. for 12-24 h. Culture media is removed and replaced with fresh culture media or culture media plus a predetermined amount of recombinant PCSK9, for example a 10 nM final concentration of PCSK9. Cell culture media can be composed of DMEM (Invitrogen) with 10% fetal bovine serum (Life Technologies) supplemented with penicillin-streptomycin (Life Technologies). Cells are dosed with small molecule test compounds at doses ranging from 0 nM to 100 uM
Following an incubation period of specified length, such as 6 hours, the media is removed and the cells are rinsed three times with a rinse solution (i.e., Dulbecco's phosphate buffered saline (D-PBS, Life Technologies) supplemented with 0.5% bovine serum albumin (BSA, Sigma) and 1 g/L glucose (Sigma)). The fluid is then removed, and cells are released from the plate using TrypLE Express (Life Technologies) per manufacturer's recommend procedures, such as incubation for 5-10 minutes at 37° C. The TyrpLE-Cell suspension is then transferred to 15 mL conical tubes, volume is increased to 2 mL with D-PBS supplemented with 0.5% BSA and […] glucose, and the tubes are centrifuged at 250× gravity for 10 minutes. Following centrifugation, the supernatant is aspirated and the cell pellet is resuspended in 100 uL D-PBS containing 0.5% BSA and […] glucose, and cells are labeled with anti-LDLR antibody per the manufacturer's recommended procedure. The cells are then pelleted by centrifugation, resuspended in 300 uL PBS and counterstained with 4′,6-Diamidino-2-phenylindole (DAPI, Cayman Chemical) as a cell viability marker, other cell viability markers such as 7-aminoactinomycin D (7AAD, Life Technologies) have also been described in the art.
Cells are analyzed for both cell viability marker (dead cells) and LDLR in live cells using a flow cytometer per the manufacturer's operating manual. Cells incubated with small molecule compounds that are inhibitors of PCSK9 will be expected to show increased amounts of LDLR, relative to control (no compound) specimens, and cells incubated with small molecule compounds that are activators of PCSK9 will be expected to show decreased amounts of LDLR relative to control (no compound) specimens.

T1 sequence (Q8NBP7 153-692): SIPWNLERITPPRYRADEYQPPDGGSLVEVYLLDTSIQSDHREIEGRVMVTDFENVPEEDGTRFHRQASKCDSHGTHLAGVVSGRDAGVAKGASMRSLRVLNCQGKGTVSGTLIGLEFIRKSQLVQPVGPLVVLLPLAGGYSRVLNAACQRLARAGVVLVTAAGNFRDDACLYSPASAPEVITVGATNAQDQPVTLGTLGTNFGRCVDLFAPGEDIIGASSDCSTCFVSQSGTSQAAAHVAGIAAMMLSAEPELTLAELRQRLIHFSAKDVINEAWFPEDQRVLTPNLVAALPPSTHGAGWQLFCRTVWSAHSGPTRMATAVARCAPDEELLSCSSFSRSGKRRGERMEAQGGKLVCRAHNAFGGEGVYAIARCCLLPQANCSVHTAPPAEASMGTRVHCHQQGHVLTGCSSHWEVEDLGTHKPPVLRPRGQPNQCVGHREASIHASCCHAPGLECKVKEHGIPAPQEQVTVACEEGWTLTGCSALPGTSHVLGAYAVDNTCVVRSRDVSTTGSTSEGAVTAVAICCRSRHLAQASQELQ

Take `c1ccc(COc2ccc(N3CCNCC3)cc2)cc1` [Compound 1, 1-(4-(benzyloxy)phenyl)piperazine]: the results for the inhibition at 10 µM at recombinant PCSK9 [1] and on recombinant PCSK9 [2] were above 100% and around 34%, respectively. The inhibition at 1.25 µM on recombinant PCSK9 [2] is around 16%.

Turning to `O=S(=O)(c1ccccc1)c1ccc(N2CCNCC2)c(F)c1` [Compound 2, 1-(2-fluoro-4-(phenylsulfonyl)phenyl)piperazine], the inhibition at 20 µM at recombinant PCSK9 [1] is above 100%. The inhibition at 1.25 µM at recombinant PCSK9 [2] was around 45%. At recombinant PCSK9 [2] (Huh-7, compound dose 5 uM), the inhibition at 5 µM was around 66%.

For the compound `c1ccc(Oc2ccc(N3CCNCC3)cc2)cc1` [Compound 3], the inhibition at 10 µM was above 100% on recombinant PCSK9 [1] and around 30% at recombinant PCSK9 [2]. Also, the inhibition at 1.25 µM on recombinant PCSK9 [2] is around 20%.

Turning to `Oc1cc(Oc2ccc(N3CCNCC3)cc2)ncn1` [Compound 4, 6-(4-(piperazin-1-yl)phenoxy)pyrimidin-4-ol], on recombinant PCSK9 [2], the inhibition at 0.313 µM was around 19% and the inhibition at 1.25 µM was around 30%.

`O=S(=O)(c1ccc(N2CCNCC2)cc1)N1CCCC1` [Compound 5, 1-(4-(pyrrolidin-1-ylsulfonyl)phenyl)piperazine]: at recombinant PCSK9 [2], the inhibition at 1.25 µM is around 10% and the inhibition at 10 µM is around 20%.

For the compound `Fc1ccc(Cc2ccc(N3CCNCC3)cc2)cc1` [Compound 6, 1-(4-(4-fluorobenzyl)phenyl)piperazine], the inhibition at 5 µM at recombinant PCSK9 [1] was above 100%. For the same compound, at recombinant PCSK9 [2], the inhibition at 1.25 µM was around 15% and the inhibition at 10 µM was around 40%.

For `O=C1CNCCN1c1ccc(Oc2ccccc2)cc1` [Compound 7, 1-(4-phenoxyphenyl)piperazin-2-one], at recombinant PCSK9 [2], the inhibition at 1.25 µM is around 18%.

Take `c1cc(C2CCNCC2)ccc1OC1CCCCC1` [Compound 8, 4-(4-(cyclohexyloxy)phenyl)piperidine]: on recombinant PCSK9 [1], the inhibition at 5 µM was above 100%. In addition, on recombinant PCSK9 [2], the inhibition at 0.313 µM was around 15%, the inhibition at 1.25 µM was around 25% and the inhibition at 10 µM was around 35%.

As to `c1cc(C2CCNCC2)ccc1OC1CCOCC1` [Compound 9, 4-(4-((tetrahydro-2H-pyran-4-yl)oxy)phenyl)piperidine], the inhibition at 20 µM on recombinant PCSK9 [2] was around 23%.

As for `O=S(=O)(Nc1ccccc1)c1ccc(N2CCNCC2)cc1` [Compound 10, N-phenyl-4-(piperazin-1-yl)benzenesulfonamide], the inhibition at 20 µM on recombinant PCSK9 [1] was above 100%. At recombinant PCSK9 [2], the inhibition at 1.25 µM is above 10%, the inhibition at 10 µM is above 25% and the inhibition at 20 µM was above 40%.

Take `O=C(Nc1ccccc1)c1ccc(N2CCNCC2)cc1` [Compound 11, N-phenyl-4-(piperazin-1-yl)benzamide]: at recombinant PCSK9 [1], the inhibition at 20 µM is around 49%.

As for `O=S(=O)(Nc1ccc2c(c1)CCCC2)c1ccc(N2CCNCC2)cc1` [Compound 12, 4-(piperazin-1-yl)-N-(5,6,7,8-tetrahydronaphthalen-2-yl)benzenesulfonamide], at recombinant PCSK9 [1], the inhibition at 1.25 µM is around 66% and the inhibition at 2.5 µM is above 100%. Moreover, at recombinant PCSK9 [2], the inhibition at 1.25 µM is around 10%, the inhibition at 10 µM is around 25% and the inhibition at 20 µM was around 45%.

With `c1cc(N2CCNCC2)ccc1OC1CCCCC1` [Compound 13, 1-(4-(cyclohexyloxy)phenyl)piperazine], on recombinant PCSK9 [1], the inhibition at 20 µM was above 100%. Further, on recombinant PCSK9 [2] (Huh-7, compound dose 0.625 uM), the inhibition at 0.625 µM was around 20%. Moreover, at recombinant PCSK9 [2], the inhibition at 10 µM is around 40%.

Turning to `O=S(=O)(Nc1ccccc1)c1ccc(C2CCNCC2)cc1` [Compound 14, N-phenyl-4-(piperidin-4-yl)benzenesulfonamide], on recombinant PCSK9 [1], the inhibition at 20 µM is above 100%.

As to `O=S(=O)(Nc1ccc2c(c1)CCCC2)c1ccc(C2CCNCC2)cc1` [Compound 15, 4-(piperidin-4-yl)-N-(5,6,7,8-tetrahydronaphthalen-2-yl)benzenesulfonamide], at recombinant PCSK9 [1], the inhibition at 1.25 µM is above 50% and the inhibition at 2.5 µM was above 100%.
